“Also recorded” adds a separate entry of the source. Bounds are passed on as bounds.

The test system of experiment [1] is aged LT-HSCs. Description: Apoptosis and cell cycle staining (Hoechst/Pyronin Y, Annexin V). The format is cell-based, mouse. The conditions noted are these: 5 μM CASIN, 16 hrs. The method, then: Hoechst/PY staining was performed as previously described (Passegue et al., 2005). Briefly, 25,000 FACS-sorted LT-HSCs were incubated for 16 hrs in HBSS+10% FBS±CASIN (5 μM) in a water jacketed incubator at 37° C., 5% CO2, 3% O2. Then HOECHST 33342 (Invitrogen) was added directly to the medium at a final concentration of 20 μg/ml and samples were kept in incubation at 37° C., 5% CO2, 3% O2 for 45 min. PironinY (Sigma-Aldrich) was then added at a concentration of 1 μg/ml, and cells were incubated for additional 15 minutes. Cells were resuspended and incubated with anti-Annexin V (BD Pharmingen) according to manufacturer's instruction, washed and immediately analyzed on a LSRII (BD Biosciences).

The target of the next experiment is T1, Cdc42 (Mus musculus, UniProt P60766).
T1 construct: lineage depleted BM cells (10^6) were lysed in a Mg2+ lysis/wash buffer; endogenous in cells; host or cells: lineage-depleted bone marrow (Lin- BM) cells from aged C57BL/6 mice
The experiment in a line: Cdc42-GTPase effector domain pull-down / Western blot. The format is cell-based. The settings on record: CASIN 5 μM, aged lineage depleted bone marrow cells. The method, then:
Relative levels of GTP-bound Cdc42 were determined by an effector pull-down assay. Briefly, lineage depleted BM cells (10^6) were lysed in a Mg2+ lysis/wash buffer (Upstate cell signaling solutions) containing 10% glycerol, 25 mM sodium fluoride, 1 mM sodium orthovanadate and a protease inhibitor cocktail (Roche Diagnostics). Samples were incubated with PAK-1 binding domain/agarose beads and bound (activated) as well as unbound (non-activated) Cdc42 fractions were probed by immunoblotting with an anti-Cdc42 antibody (Millipore, rabbit polyclonal). Activated protein was normalized to total protein and/or β-actin (Sigma) and the relative amount was quantified by densitometry.
In general terms: A western blot detects proteins with antibodies after separation by electrophoresis.

Another experiment relates to HSC. Description: In vivo rejuvenation of HSC (Example 6). More on the design: species or system mice. The method, then:
To test the extent to which CASIN rejuvenates HSC in vivo, aged (20+ months old mice) are given CASIN i. v. or i.p. twice daily for 28 days and compared to young as well as aged solvent injected control groups. In 28 days most of the HSCs cycle at least once in vivo. Subsequently, PB is harvested every 14 days for a total of 2 months and differential blood counts (myeloid cells, lymphoid cells, red blood cells etc) are determined by hemavat counting and flow cytometry. At 3 months post CASIN treatment, when hematopoesis should be fully supported by stem cell activity of the CASIN exposed HSCs, animals are sacrificed and the number of early hematopoietic progenitor cells (Lineage^negc-Kit^+Sca-1^+ or LSK), long-term repopulating-HSC (LSKCD34^low/−Flk-2^−, LT-HSC), lymphoid-primed multi-potent progenitors (LMPPs, LSKCD34^+Flk-2^+11, 23, 24) are determined.
Separately, to investigate the effect of CASIN on stem cell fitness and lineage differentiation, standard competitive transplantation assays are performed using the syngeneic CD45.1/CD45.2 surface marker system to differentiate donor from recipient cells. […] Lineage chimerism (myeloid, B- and T-lymphoid) in peripheral blood (PB) is then determined up to 24-weeks post-transplant. […]

Experiment [2] concerns aged LT-HSCs. The experiment in a line: Immunofluorescence polarity scoring of Cdc42 and tubulin. The class given is cell-based, mouse. On the procedure:
Freshly sorted LT-HSCs were seeded on fibronectin-coated glass coverslips in HBSS+10% FBS. CASIN (referred to in (Peterson et al., 2006) as Pirl1-related compound 2) was obtained from Chembridge Corporation, and purified to greater than 99% by high-performance liquid chromatography. After 16 hours of incubation at 37° C., 5% CO2, 3% O2, cells were fixed with BD Cytofix Fixation Buffer (BD Biosciences).
After fixation cells were gently washed with PBS, permeabilized with 0.2% Tryton X-100 (Sigma) in PBS for 20 minutes and blocked with 10% Donkey Serum (Sigma) for 30 minutes. Primary and secondary antibodies incubations were performed for 1 hr at room temperature. […] The cells were coimmunostained with an anti-alpha tubulin antibody (Abcam, rat monoclonal ab6160) detected with an anti-rat AMCA-conjugated secondary antibody or an anti-rat DyLight 488-conjugated antibody (Jackson ImmunoResearch), an anti-Cdc42 antibody (Millipore, rabbit polyclonal) detected with an anti-rabbit DyLight 549-conjugated antibody (Jackson ImmunoResearch) and an anti-Pericentrin-2 antibody (Santa Cruz Biotechnology, goat polyclonal) detected with an anti-goat MCAconjugated antibody (Jackson ImmunoResearch). […] Images were analyzed with AxioVision 4.6 software. Alternatively, samples were analyzed with an LSM710 confocal microscope (Zeiss) equipped with a 63X objective. […]

T1 sequence (P60766 whole entry): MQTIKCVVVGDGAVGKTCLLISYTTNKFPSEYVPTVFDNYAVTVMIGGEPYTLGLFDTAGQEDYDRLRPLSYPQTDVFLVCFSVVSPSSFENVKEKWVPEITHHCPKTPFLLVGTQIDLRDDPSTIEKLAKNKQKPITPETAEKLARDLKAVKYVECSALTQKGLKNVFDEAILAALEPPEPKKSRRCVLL

Take `OCCNC1CCCc2c1[nH]c1ccc(-c3ccccc3)cc21` (stereo not shown) [CASIN]: in the experiment with aged LT-HSCs [1], the apoptosis entry is given as “did not alter; also recorded: doesn't alter” and the cell cycle status result is on record as “did not alter; also recorded: doesn't alter”. On Cdc42, the “level of active Cdc42 (Cdc42-GTP)” value is listed as “reduced the elevated level of active Cdc42 observed in aged primitive hematopoietic cells to the level observed in young cells”. Also, the “preferential differentiation towards the myeloid lineage” value in the experiment with HSC (CASIN-treated aged HSCs) is listed as “ameliorated”. In the experiment with HSC (HSCs from CASIN-treated aged animals), the “chimerism in competitive transplant assays” value was “greater than the overall chimerism supported by aged HSCs and similar to that observed for young HSCs”. Moreover, the “time the increase in percentage of polar cells remained stable after CASIN withdrawal” value in the experiment with aged LT-HSCs [2] (aged LT-HSCs in vitro) was ≥ 6 h. In the experiment on aged LT-HSCs [2] (aged LT-HSCs, 2.5 and 5 μM CASIN), the “percentage of polarized cells (Cdc42 and tubulin)” value is “dose-dependent increase”.

Values taken from patent publication US9980942B2, “Rejuvenation of precursor cells” (Children's Hospital Medical Center, priority 2012, dated 2018).
